Assay results as given in patent publication US20100159496A1, “EVALUATION METHOD FOR PHOTOSYNTHESIS SAMPLE, EVALUATION SYSTEM FOR PHOTOSYNTHESIS SAMPLE, AND EVALUATION PROGRAM FOR PHOTOSYNTHESIS SAMPLE” (HAMAMATSU PHOTONICS K.K., priority 2006, published 2010).

Experiments:
[1] = test system: Spirulina platensis; experiment: Delayed luminescence of S. platensis exposed to simazine, fitted by Formula (1); type: cell-based; design: Fitting formula value c3 / Fitting formula value a1 / Fitting formula value b1 / Fitting formula value c1 / Fitting formula value a2 / Fitting formula value b2 / Fitting formula value c2 / Fitting formula value a3 / Fitting formula value b3: unit not given here; conditions: for luminescence amount of delayed luminescence, exposed vs not exposed: 15 minutes after exposure (FIG. 10); for Fitting formula value a1 / Fitting formula value a2 / Fitting formula value a3 / Fitting formula value b1 / Fitting formula value b2 / Fitting formula value b3 / Fitting formula value c1 / Fitting formula value c2 / Fitting formula value c3: 15 minutes after exposure
Protocol: In the present example, the measurement of delayed luminescence was carried out as follows. 2.5 mL of an S. platensis cell suspension, adjusted to have an absorbance at 660 nm of 0.05 in a general, 10×10 mm spectrometric cell, was exposed to simazine of any of various concentrations and left to stand for 15 minutes under a white fluorescent lamp of a light amount of 50 μmol·m−2·s−1. Thereafter, inside the measuring device 10, a red light (660 nm) of approximately 300 μmol·m−2·s−1 was illuminated for 10 seconds from the light source 18 as the excitation light for making delayed luminescence be emitted and then the delayed luminescence emitted after extinguishing of the excitation light was recorded for 50 seconds at 0.1 second intervals.
In the present example, the above-described Formula (1) was used for fitting. As examples for description of the fitting results, the measurement result for the “Not exposed” case is shown in FIG. 11A and a graph of the results of fitting to the measurement data are shown in FIG. 11B. In FIG. 11B, f1(t), f2(t), and f3(t) are respectively the first function, the second function, and the third function in Formula (1). From FIG. 11, it can be understood that the delayed luminescence measurement data can be fitted by a plurality of hill-shaped functions.
By the fitting, the function coefficients, ai, bi, and ci (i=1, 2, 3) are determined.

[2] = test system: Pseudokircheneriella subcapitata; experiment: Algae growth inhibition, area under growth curve, P. subcapitata; type: cell-based; conditions: 72 hours after exposure, various simazine concentrations (FIG. 13)
Protocol: In the present embodiment, the area under the growth curve is the area under the growth curve obtained by culturing 6 mL of an P. subcapitata cell suspension, adjusted to have an absorbance at 750 nm of 0.01, under a white fluorescent lamp (50 μmol·m−2·s−1) for 72 hours after chemical substance exposure and measuring, every 24 hours, the cell density as the absorbance at 750 nm.

[3] = simazine exposure concentration 5 μg/L
[4] = simazine exposure concentration 25 μg/L
[5] = simazine exposure concentration 50 μg/L
[6] = simazine exposure concentration 100 μg/L

Question: How did the “variation of evaluation value c3 with simazine exposure concentration” value ([1]; S. platensis (FIG. 12)) turn out when CCNc1nc(Cl)nc(NCC)n1 [Simazine, simazine] was run?
Answer: decreases in accordance with the simazine exposure concentration

Question: What about the “luminescence amount of delayed luminescence, exposed vs not exposed” value ([1]; early time period (near 0 seconds) of time after excitation) of the same molecule?
Answer: increases

Question: What about the “luminescence amount of delayed luminescence, exposed vs not exposed” value ([1]; later time period (5 seconds onward) after excitation) of the same molecule?
Answer: decreases

Question: And the “Fitting formula value a1” value [1, 3]?
Answer: 0.2

Question: What about the “Fitting formula value a2” value [1, 3] of the same molecule?
Answer: 0.01

Question: And the “Fitting formula value a3” value [1, 3]?
Answer: 0.006

Question: And the “Fitting formula value b1” value [1, 3]?
Answer: −0.5

Question: What about the “Fitting formula value b2” value [1, 3] of the same molecule?
Answer: −0.5

Question: What about the “Fitting formula value b3” value [1, 3] of the same molecule?
Answer: 22

Question: And the “Fitting formula value c1” value [1, 3]?
Answer: 4.5

Question: And the “Fitting formula value c2” value [1, 3]?
Answer: 3.5

Question: What about the “Fitting formula value c3” value [1, 3] of the same molecule?
Answer: 2.2

Question: And the “Fitting formula value a1” value [1, 4]?
Answer: 0.2

Question: And the “Fitting formula value a2” value [1, 4]?
Answer: 0.018

Question: What about the “Fitting formula value a3” value [1, 4] of the same molecule?
Answer: 0.005

Question: And the “Fitting formula value b1” value [1, 4]?
Answer: −0.5

Question: What about the “Fitting formula value b2” value [1, 4] of the same molecule?
Answer: −0.5

Question: What about the “Fitting formula value b3” value [1, 4] of the same molecule?
Answer: 22

Question: What about the “Fitting formula value c1” value [1, 4] of the same molecule?
Answer: 4.8

Question: And the “Fitting formula value c2” value [1, 4]?
Answer: 3.8

Question: And the “Fitting formula value c3” value [1, 4]?
Answer: 1.6

Question: What about the “Fitting formula value a1” value [1, 5] of the same molecule?
Answer: 0.3

Question: What about the “Fitting formula value a2” value [1, 5] of the same molecule?
Answer: 0.02

Question: And the “Fitting formula value a3” value [1, 5]?
Answer: 0.01

Question: And the “Fitting formula value b1” value [1, 5]?
Answer: −0.5

Question: And the “Fitting formula value b2” value [1, 5]?
Answer: −0.5

Question: What about the “Fitting formula value b3” value [1, 5] of the same molecule?
Answer: 21

Question: And the “Fitting formula value c1” value [1, 5]?
Answer: 5

Question: And the “Fitting formula value c2” value [1, 5]?
Answer: 3.8

Question: What about the “Fitting formula value c3” value [1, 5] of the same molecule?
Answer: 1.2

Question: What about the “Fitting formula value a1” value [1, 6] of the same molecule?
Answer: 0.4

Question: What about the “Fitting formula value a2” value [1, 6] of the same molecule?
Answer: 0.024

Question: What about the “Fitting formula value a3” value [1, 6] of the same molecule?
Answer: 0.02

Question: What about the “Fitting formula value b1” value [1, 6] of the same molecule?
Answer: −0.5

Question: What about the “Fitting formula value b2” value [1, 6] of the same molecule?
Answer: −0.5

Question: And the “Fitting formula value b3” value [1, 6]?
Answer: 20

Question: What about the “Fitting formula value c1” value [1, 6] of the same molecule?
Answer: 5.5

Question: What about the “Fitting formula value c2” value [1, 6] of the same molecule?
Answer: 3.8

Question: And the “Fitting formula value c3” value [1, 6]?
Answer: 0.7

Question: And the “cell growth (area under the growth curve)” value [2]?
Answer: inhibited according to the exposure concentration of simazine
